In patent US4382094A, “Reduced naphthalenes, their preparation and use” (Beecham Group Limited, priority 1980, dated 1983):

Test system: ear, irritant solution of 1% croton oil
Assay: topical anti-inflammatory activity, croton oil rat ear model (Fregnan and Torsello)
Assay type: in vivo, Rats, Charles River Wistar Strain, female
Settings: 6 hours
Description: Compounds were tested for anti-inflammatory activity in a topical model based on that described by Fregnan G. B. and Torsello, A. L. (1975), Current Therapeutic Research 17, No. 4, 375-381. In outline the method is as follows:
Rats, Charles River Wistar Strain, female, 10/group. Weight range 200-240 g.
Irritant solution applied consists of 1% croton oil in tetrahydrofuran. 0.05 ml is placed on each ear, compound being included in the irritant solution on one ear. 6 hours later the ears are removed by cutting along the hairline and weighed.
-ve controls--no irritant solution.
+ve controls--irritant solution on both ears.

[1] = 3.0 mg/ear on the other (treated) ear
[2] = Rattus norvegicus, 2 mg/ear, topical, compound in irritant solution, read-out: Treated Ear % inhibition
[3] = Rattus norvegicus, topical, compound in irritant solution, read-out: Treated Ear % inhibition

Row | Compound | inhibition in vivo at 2 mg/ear [2] [%] | also measured
1 | CC12CCC(=O)C=C1CCC(=Cc1ccccc1)C2=O (stereo not drawn) [Compound 1, 2-Benzylidene-3,4,8,8a-tetrahydro-8a-methyl-1,6(2H,7H)-naphthalenedione] | – | Non-Treated Ear % inhibition [1]: -1%; Non-Treated Ear wt. [1]: 136.5 ± 5.80 mg; inhibition in vivo at 3 mg/ear (Rattus norvegicus, 3.0 mg/ear, topical, compound in irritant solution, read-out: Treated Ear % inhibition): 70%
2 | CC12CCC(=O)C=C1CCC(=Cc1cccs1)C2=O (stereo not drawn) [Compound 2, 2-(2-Thienylmethylidene)-3,4,8,8a-tetrahydro-8a-methyl-1,6(2H,7H)-naphthalenedione] | 71 | –
3 | CC12CCC(=O)C=C1CCC(=Cc1ccc(Cl)cc1)C2=O (stereo not drawn) [Compound 3, 2-(4-Chlorobenzylidene)-3,4,8,8a-tetrahydro-8a-methyl-1,6-(2H,7H)-naphthalenedione] | 63 | –
4 | CC12CCC(=O)C=C1CCC(=Cc1ccco1)C2=O (stereo not drawn) [Compound 4, 2-(2-Furylmethylidene)-3,4,8,8a-tetrahydro-8a-methyl-1,6(2H,7H)-naphthalenedione] | 44 | –
5 | CC12CCC(=O)C=C1CCC(=Cc1cccc(Cl)c1)C2=O (stereo not drawn) [Compound 5, 2-(3-Chlorobenzylidene)-3,4,8,8a-tetrahydro-8a-methyl-1,6-(2H,7H)-naphthalenedione] | 41 | –
6 | CC12CCC(=O)C=C1CCC(=Cc1ccc(C#N)cc1)C2=O (stereo not drawn) [Compound 6, 4-[(3,4,8,8a-Tetrahydro-8a-methyl-1,6-dioxo(2H,7H)-naphthalen-2-yl)methylidene]benzonitrile] | 53 | Treated Ear wt. (2 mg/ear, topical, * p<0.05 vs control (Students t test)): 87.2 mg
7 | CC12CCC(=O)C=C1CCC(=Cc1ccc([N+](=O)[O-])cc1)C2=O (stereo not drawn) [Compound 7, 4-[(3,4,8,8a-Tetrahydro-8a-methyl-1,6-dioxo(2H,7H)-naphthalen-2-yl)methylidene]nitrobenzene] | 81 | –
8 | CN(C)c1ccc(C=C2CCC3=CC(=O)CCC3(C)C2=O)cc1 (stereo not drawn) [Compound 8, 2-(4-Dimethylaminobenzylidene)-3,4,8,8a-tetrahydro-8a-methyl-1,6(2H,7H)-naphthalenedione] | – | inhibition in vivo at 1.5 mg/ear [3]: 99%
9 | CC12CCC(=O)C=C1CCC(=Cc1ccc3c(c1)OCO3)C2=O (stereo not drawn) [Compound 9, 2-(3,4-Methylenedioxybenzylidene)-3,4,8,8,a-tetrahydro-8a-methyl-1,6(2H,7H)-naphthalenedione] | 100 | –
10 | CC12CCC(=O)C=C1CCC(=Cc1cccc(O)c1)C2=O (stereo not drawn) [Compound 10, 2-(3-Hydroxybenzylidene)3,4,8,8a-tetrahydro-8a-methyl-1,6(2H,7H)-naphthalenedione] | 98 | –
11 | COc1ccc(C=C2CCC3=CC(=O)CCC3(C)C2=O)cc1 (stereo not drawn) [Compound 11, 2-(4-Methoxybenzylidene)-3,4,8,8a-tetrahydro-8a-methyl-1,6(2H,7H)-naphthalenedione] | 95 | –
12 | CC12CCC(=O)C=C1CCC(=Cc1ccccc1)C2O (stereo not drawn) [Compound 14, 6-Benzylidene-4,4a,5,6,7,8-hexahydro-5-hydroxy-4a-methyl-2(3H)-naphthalenon] | – | inhibition in vivo at 1.5 mg/ear [3]: 107%
